Values quoted from earlier work as cited in patent publication US8871277B2, “Particulate wood preservative and method for producing the same” (Osmose, Inc., priority 2003, dated 2014).
Where two headings read alike, the source gives them in different places.

Key:
[1] = solubility product constant
[2] = Synthetic Precipitation Leaching Procedure

Question: With `[Cu]` [copper] as the compound, how does the solubility of copper (pH 4) read?
Answer: 640 ppm

Question: What about the solubility of copper (pH 7) of the same compound?
Answer: 2 ppm

Question: And the solubility of copper (pH 10)?
Answer: about 0.01 ppm

Question: With copper 8-quinolinolate as the compound, how does the Ksp [1] read?
Answer: 2 E−30

Question: With copper citrate as the compound, how does the “copper in leachate from treated wood” value [2] read?
Answer: 62 mg copper per liter

Question: Which Ksp [1] does the source give for copper sulfide here?
Answer: 6 E−36
